Calls of active or inactive are those of the source. The rule behind the calls is not given here.
Tests used:
SK-MEL-147 [1] = assay: Cytotoxicity against human SK-MEL-147 cells assessed as reduction in cell viability at 50 and 100 uM after 24 hrs by MTT assay; format: functional, cell-based
Jurkat [2] = assay: Cytotoxicity against human Jurkat cells assessed as reduction in cell viability at 50 and 100 uM after 24 hrs by MTT assay; format: functional, cell-based
SK-MEL-147 [3] = assay: Cytotoxicity against human SK-MEL-147 cells assessed as reduction in cell viability after 24 hrs by MTT assay; format: functional, cell-based; details: SK-MEL-147, 24 h
Jurkat [4] = assay: Cytotoxicity against human Jurkat cells assessed as reduction in cell viability after 24 hrs by MTT assay; format: functional, cell-based
[5] = Inhibition of Leishmania mexicana rCPB3.0 using Z-FR-AMC as substrate by spectrofluorometric analysis
[6] = Inhibition of Leishmania mexicana rCPB3.0 H84Y mutant using Z-FR-AMC as substrate by spectrofluorometric analysis
SK-MEL-147 [7] = assay: Cytotoxicity against human SK-MEL-147 cells assessed as reduction in cell viability at EC50 concentration preincubated for 1 hr in presence of GSH measured after 24 hrs by MTT assay; format: functional, cell-based
SK-MEL-147 [8] = assay: Induction of apoptosis in human SK-MEL-147 cells assessed as early apoptotic cells at 20 uM after 24 hrs by Annexin V-FITC/propidium iodide staining based flow cytometry; format: functional, cell-based
SK-MEL-147 [9] = assay: Induction of apoptosis in human SK-MEL-147 cells assessed as late apoptotic cells at 20 uM after 24 hrs by Annexin V-FITC/propidium iodide staining based flow cytometry; format: functional, cell-based
SK-MEL-147 [10] = assay: Induction of apoptosis in human SK-MEL-147 cells assessed as necrotic cells at 20 uM after 24 hrs by Annexin V-FITC/propidium iodide staining based flow cytometry; format: functional, cell-based
SK-MEL-147 [11] = assay: Induction of apoptosis in human SK-MEL-147 cells assessed as mitochondrial membrane potential dissipation after 24 hrs by TMRM staining based fluorescence microscopic method; format: functional, cell-based
SK-MEL-147 [12] = assay: Induction of apoptosis in human SK-MEL-147 cells assessed as increase in reactive oxygen species generation by CM-H2DCFDA staining based flow cytometric analysis; format: functional, cell-based
SK-MEL-147 [13] = assay: Induction of apoptosis in human SK-MEL-147 cells assessed mitochondrial permeabilization after 24 hrs by mitotracker green staining based microscopic analysis; format: functional, cell-based
SK-MEL-147 [14] = assay: Cytotoxicity against human SK-MEL-147 cells assessed as reduction in cell viability at EC50 concentration preincubated for 1 hr in presence of DTT measured after 24 hrs by MTT assay; format: functional, cell-based
SK-MEL-147 [15] = assay: Cytotoxicity against human SK-MEL-147 cells assessed as reduction in cell viability at EC50 concentration preincubated for 1 hr in presence of N-acetyl cysteine measured after 24 hrs by MTT assay; format: functional, cell-based
SK-MEL [16] = assay: Cytotoxicity against human SK-MEL-147 cells assessed as reduction in cell viability at EC50 concentration preincubated for 1 hr in presence of EGTA measured after 24 hrs by MTT assay; format: functional, cell-based
SK-MEL [17] = assay: Cytotoxicity against human SK-MEL-147 cells assessed as reduction in cell viability at EC50 concentration preincubated for 1 hr in presence of BAPTA measured after 24 hrs by MTT assay; format: functional, cell-based
SK-MEL-147 [18] = assay: Cytotoxicity against human SK-MEL-147 cells assessed as reduction in cell viability at EC50 concentration preincubated for 1 hr in presence of Boc-D-FMK measured after 24 hrs by MTT assay; format: functional, cell-based
SK-MEL-147 [19] = assay: Cytotoxicity against human SK-MEL-147 cells assessed as reduction in cell viability at EC50 concentration preincubated for 1 hr in presence of E-64 measured after 24 hrs by MTT assay; format: functional, cell-based
Rattus norvegicus [20] = species on record: Rattus norvegicus; assay: Induction of mitochondrial permeabilization in rat liver mitochondria assessed as mitochondrial transmembrane potential dissipation by rhodamine-123 dye based spectrofluorometer analysis; format: functional
Rattus norvegicus [21] = species on record: Rattus norvegicus; assay: Induction of mitochondrial permeabilization in rat liver mitochondria assessed as calcium efflux by calcium green based spectrofluorometer analysis; format: functional
Rattus norvegicus [22] = species on record: Rattus norvegicus; assay: Induction of mitochondrial permeabilization in rat liver mitochondria assessed as mitochondrial transmembrane potential dissipation in presence of DTT by rhodamine-123 dye based spectrofluorometer analysis; format: functional
Rattus norvegicus [23] = species on record: Rattus norvegicus; assay: Induction of mitochondrial permeabilization in rat liver mitochondria assessed as mitochondrial transmembrane potential dissipation in presence of CsA by rhodamine-123 dye based spectrofluorometer analysis; format: functional
Rattus norvegicus [24] = species on record: Rattus norvegicus; assay: Induction of mitochondrial permeabilization in rat liver mitochondria assessed as mitochondrial transmembrane potential dissipation in presence of ADP by rhodamine-123 dye based spectrofluorometer analysis; format: functional
Rattus norvegicus [25] = species on record: Rattus norvegicus; assay: Induction of mitochondrial permeabilization in rat liver mitochondria assessed as calcium efflux in presence of DTT by calcium green based spectrofluorometer analysis; format: functional
Rattus norvegicus [26] = species on record: Rattus norvegicus; assay: Induction of mitochondrial permeabilization in rat liver mitochondria assessed as calcium efflux in presence of CsA by calcium green based spectrofluorometer analysis; format: functional
Rattus norvegicus [27] = species on record: Rattus norvegicus; assay: Induction of mitochondrial permeabilization in rat liver mitochondria assessed as calcium efflux in presence of ADP by calcium green based spectrofluorometer analysis; format: functional
SK-MEL-147 [28] = assay: Induction of apoptosis in human SK-MEL-147 cells assessed as increase in BAX expression at 20 uM after 24 hrs by western blotting analysis; format: functional, cell-based
SK-MEL-147 [29] = assay: Induction of apoptosis in human SK-MEL-147 cells assessed as effect on BCL-2 protein expression at 20 uM after 24 hrs by western blotting analysis; format: functional, cell-based
SK-MEL-147 [30] = assay: Cytotoxicity against human SK-MEL-147 cells assessed as reduction in cell viability in presence of BCL2 inhibitor venetoclax; format: functional, cell-based
Cathepsin B = Cathepsin B (Homo sapiens, UniProt P07858); assay: Inhibition of cathepsin B (unknown origin) using Z-FR-AMC as substrate by spectrofluorometric analysis; details: read-out: IC50
Procathepsin L = Procathepsin L (Homo sapiens, UniProt P07711); assay: Inhibition of cathepsin L (unknown origin) using Z-FR-AMC as substrate by spectrofluorometric analysis; details: read-out: IC50
Cysteine proteinase B [31] = target: T1, Cysteine proteinase B (Leishmania mexicana, UniProt P36400); assay: Inhibition of Leishmania mexicana rCPB2.8 using Z-FR-AMC as substrate by spectrofluorometric analysis
Cysteine proteinase B [32] = target: T1, Cysteine proteinase B; assay: Inhibition of Leishmania mexicana rCPB2.8 assessed as inhibition constant using Z-FR-AMC as substrate preincubated for 10 mins followed by substrate addition by Lineweaver-Burk double reciprocal plot analysis
[33] = Inhibition of Leishmania mexicana rCPB3.0 assessed as inhibition constant using Z-FR-AMC as substrate preincubated for 10 mins followed by substrate addition by Lineweaver-Burk double reciprocal plot analysis
[34] = Inhibition of Leishmania mexicana rCPB3.0 H84Y mutant assessed as inhibition constant using Z-FR-AMC as substrate preincubated for 10 mins followed by substrate addition by Lineweaver-Burk double reciprocal plot analysis
[35] = target: Cysteine proteinase B (Leishmania mexicana) (UniProt P36400); assay: Inhibition of Leishmania mexicana rCPB2.8 assessed as inhibition constant for uncompetitive inhibition using Z-FR-AMC as substrate preincubated for 10 mins followed by substrate addition by Lineweaver-Burk double reciprocal plot analysis
Leishmania mexicana [36] = assay: Inhibition of Leishmania mexicana rCPB3.0 assessed as inhibition constant for uncompetitive inhibition using Z-FR-AMC as substrate preincubated for 10 mins followed by substrate addition by Lineweaver-Burk double reciprocal plot analysis
Leishmania mexicana [37] = assay: Inhibition of Leishmania mexicana rCPB3.0 H84Y mutant assessed as inhibition constant for uncompetitive inhibition using Z-FR-AMC as substrate preincubated for 10 mins followed by substrate addition by Lineweaver-Burk double reciprocal plot analysis

T1 sequence (P36400 whole entry): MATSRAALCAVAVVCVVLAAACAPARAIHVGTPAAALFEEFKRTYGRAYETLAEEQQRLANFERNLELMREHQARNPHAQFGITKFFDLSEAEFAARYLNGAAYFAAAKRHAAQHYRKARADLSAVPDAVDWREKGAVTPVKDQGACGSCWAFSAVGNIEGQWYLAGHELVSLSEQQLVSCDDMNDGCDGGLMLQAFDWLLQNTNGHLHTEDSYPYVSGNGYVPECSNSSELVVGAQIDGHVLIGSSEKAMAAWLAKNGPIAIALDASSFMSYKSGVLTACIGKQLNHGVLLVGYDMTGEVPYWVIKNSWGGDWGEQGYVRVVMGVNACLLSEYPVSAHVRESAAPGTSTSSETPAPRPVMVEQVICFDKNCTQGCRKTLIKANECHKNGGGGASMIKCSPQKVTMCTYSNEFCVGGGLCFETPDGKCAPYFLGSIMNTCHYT
Sequence of Cysteine proteinase B (Leishmania mexicana) (P36400 126-443 limits assumed): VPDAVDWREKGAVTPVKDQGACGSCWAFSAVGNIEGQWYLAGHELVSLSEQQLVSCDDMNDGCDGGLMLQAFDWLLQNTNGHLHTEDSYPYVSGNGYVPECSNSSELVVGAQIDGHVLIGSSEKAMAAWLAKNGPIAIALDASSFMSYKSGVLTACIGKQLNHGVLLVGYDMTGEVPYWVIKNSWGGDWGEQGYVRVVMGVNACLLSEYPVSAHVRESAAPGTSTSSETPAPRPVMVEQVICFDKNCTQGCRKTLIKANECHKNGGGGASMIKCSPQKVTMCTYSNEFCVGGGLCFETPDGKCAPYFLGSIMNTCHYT
Sequence of Procathepsin L (P07711 whole entry): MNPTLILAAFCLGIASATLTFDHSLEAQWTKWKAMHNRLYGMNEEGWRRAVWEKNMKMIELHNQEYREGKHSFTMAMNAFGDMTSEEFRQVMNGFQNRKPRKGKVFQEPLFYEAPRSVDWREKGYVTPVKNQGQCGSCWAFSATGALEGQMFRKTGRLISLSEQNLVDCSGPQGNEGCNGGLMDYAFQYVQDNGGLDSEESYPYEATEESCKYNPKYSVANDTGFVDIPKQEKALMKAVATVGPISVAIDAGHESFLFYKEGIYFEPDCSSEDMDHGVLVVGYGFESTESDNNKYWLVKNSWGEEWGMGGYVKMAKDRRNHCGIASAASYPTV

Q: What does the source list for CCOC(=O)c1cc([Se]c2ccccc2)c2cc(OC)ccc2n1?
A: Activity (SK-MEL-147 [1]): Active; Activity (Jurkat [2]): Active; EC50 (SK-MEL-147 [3]): 33 µM; EC50 (Jurkat [4]): 102 µM

Q: Which Activity (SK-MEL-147 [1]) does the source give for CCOC(=O)c1cc([Se]c2ccc3ccccc3c2)c2cc(OC)ccc2n1 here?
A: Active

Q: And the Activity (Jurkat [2])?
A: Active

Q: And the EC50 (SK-MEL-147 [3])?
A: 32.2 µM

Q: What about the EC50 (Jurkat [4]) of the same compound?
A: 50.7 µM

Q: With CCOC(=O)c1cc([Se]Cc2ccccc2)c2cc(OC)ccc2n1 as the compound, how does the Activity (SK-MEL-147 [1]) read?
A: Active

Q: What about the Activity (Jurkat [2]) of the same compound?
A: Active

Q: What about the EC50 (SK-MEL-147 [3]) of the same compound?
A: 40.7 µM

Q: What about the EC50 (Jurkat [4]) of the same compound?
A: 20.8 µM

Q: Which results are given for CCOC(=O)c1cc([Se]c2ccc3cc(OC)ccc3c2)c2cc(Cl)ccc2n1?
A: Activity (SK-MEL-147 [1]): Active; Activity (Jurkat [2]): Active; EC50 (SK-MEL-147 [3]): 16.2 µM; EC50 (Jurkat [4]): 29.2 µM; IC50 [5]: 6.35 µM; IC50 [6]: 7.25 µM

Q: What does the source list for CCCCC#Cc1cc(C(=O)OCC)nc2ccc(OC)cc12?
A: Activity (SK-MEL-147 [7]): Active; Activity (SK-MEL-147 [1]): Active; Activity (Jurkat [2]): Active; EC50 (SK-MEL-147 [3]): 7.2 µM; EC50 (Jurkat [4]): 15.9 µM; Activity (SK-MEL-147 [8]): Active; Activity (SK-MEL-147 [9]): Active; Activity (SK-MEL-147 [10]): Active; Activity (SK-MEL-147 [11]): Active; Activity (SK-MEL-147 [12]): Active; Activity (SK-MEL-147 [13]): Active; Activity (SK-MEL-147 [14]): Active; Activity (SK-MEL-147 [15]): Active; Activity (SK-MEL [16]): Active; Activity (SK-MEL [17]): Active; Activity (SK-MEL-147 [18]): inactive; Activity (SK-MEL-147 [19]): inactive; Activity (Rattus norvegicus [20]): Active; Activity (Rattus norvegicus [21]): Active; Activity (Rattus norvegicus [22]): Active; Activity (Rattus norvegicus [23]): Active; Activity (Rattus norvegicus [24]): Active; Activity (Rattus norvegicus [25]): Active; Activity (Rattus norvegicus [26]): Active; Activity (Rattus norvegicus [27]): inactive; Activity (SK-MEL-147 [28]): Active; Activity (SK-MEL-147 [29]): inactive; Activity (SK-MEL-147 [30]): Active; IC50 (Cathepsin B): 6.86 µM; IC50 (Procathepsin L): 3.69 µM

Q: Which results are given for COc1ccc([Se]c2cc(-c3ccc(O)cc3)nc3ccc(OC)cc23)cc1?
A: Activity (SK-MEL-147 [1]): Active; Activity (Jurkat [2]): Active; EC50 (SK-MEL-147 [3]): 59.2 µM; EC50 (Jurkat [4]): 41.5 µM; IC50 (Cysteine proteinase B [31]): 3.6 µM; IC50 [5]: 5.78 µM; IC50 [6]: 12.4 µM; Ki (Cysteine proteinase B [32]): 21.7 µM; Ki [33]: 18.5 µM; Ki [34]: 18.3 µM; alphaKi [35]: 22.1 µM; alphaKi (Leishmania mexicana [36]): 18.6 µM; alphaKi (Leishmania mexicana [37]): 18.4 µM

Q: What does the source list for CCOC(=O)c1cc(C#Cc2ccccc2[N+](=O)[O-])c2cc(OC)ccc2n1?
A: Activity (SK-MEL-147 [1]): Active; Activity (Jurkat [2]): Active; EC50 (SK-MEL-147 [3]): > 150 µM; EC50 (Jurkat [4]): 54.7 µM

Q: For CCOC(=O)c1cc(C#CCCO)c2cc(OC)ccc2n1, which Activity (SK-MEL-147 [1]) is on record?
A: Active

Q: And the Activity (Jurkat [2])?
A: Active

Q: And the EC50 (SK-MEL-147 [3])?
A: > 150 µM

Q: What about the EC50 (Jurkat [4]) of the same compound?
A: 123 µM

Q: For CCOC(=O)c1cc([Se]c2ccc(F)cc2)c2cc(OC)ccc2n1, which Activity (SK-MEL-147 [1]) is on record?
A: Active

Q: What about the Activity (Jurkat [2]) of the same compound?
A: Active

Q: And the EC50 (SK-MEL-147 [3])?
A: > 150 µM

Q: What about the EC50 (Jurkat [4]) of the same compound?
A: 134 µM

Q: With CCOC(=O)c1cc([Se]Cc2ccccc2)c2cc(Br)ccc2n1 as the compound, how does the Activity (SK-MEL-147 [1]) read?
A: Active

Q: What about the Activity (Jurkat [2]) of the same compound?
A: Active

Q: What about the EC50 (SK-MEL-147 [3]) of the same compound?
A: 31.2 µM

Q: What about the EC50 (Jurkat [4]) of the same compound?
A: 53.6 µM

Q: Which results are given for CCOC(=O)c1cc([Se]c2ccccc2)c2ccccc2n1?
A: Activity (SK-MEL-147 [1]): Active; Activity (Jurkat [2]): Active; EC50 (SK-MEL-147 [3]): 86.3 µM; EC50 (Jurkat [4]): 98.2 µM; IC50 (Cysteine proteinase B [31]): 54 µM; IC50 [5]: 57.5 µM; IC50 [6]: 25.3 µM

Q: With CCOC(=O)c1cc([Se]c2ccc3cc(OC)ccc3c2)c2cc(OC)ccc2n1 as the compound, how does the Activity (SK-MEL-147 [1]) read?
A: Active

Q: What about the Activity (Jurkat [2]) of the same compound?
A: Active

Q: What about the EC50 (SK-MEL-147 [3]) of the same compound?
A: 30.8 µM

Q: What about the EC50 (Jurkat [4]) of the same compound?
A: 31.3 µM

Q: And the IC50 [6]?
A: 8.44 µM

Reference: ChEMBL document CHEMBL4622851, “Cytotoxicity of 4-substituted quinoline derivatives: Anticancer and antileishmanial potential” (Bioorg Med Chem, 2020)
